Laboratory results: patent US9540337B2, “Gamma-glutamyl transpeptidase inhibitors and methods of use” (The Board of Regents of the University of Oklahoma, priority 2012, dated 2017)
Where “and” joins values, the source holds several entries; their conditions need not be identical. Identical values can stand only once. Like-named read-outs stand apart in the source and are kept apart here.

What was measured:
hGGT = target: T1, hGGT (Homo sapiens, UniProt P19440); assay: L-Glutamate Release Assay (Hydrolysis of GSH); type: biochemical; conditions: for Ki: read-out: GSH Kii
T1 construct: lacking the transmembrane domain; made in house; host or cells: Pichia pastoris
T1 sequence (P19440 381-569 limits assumed): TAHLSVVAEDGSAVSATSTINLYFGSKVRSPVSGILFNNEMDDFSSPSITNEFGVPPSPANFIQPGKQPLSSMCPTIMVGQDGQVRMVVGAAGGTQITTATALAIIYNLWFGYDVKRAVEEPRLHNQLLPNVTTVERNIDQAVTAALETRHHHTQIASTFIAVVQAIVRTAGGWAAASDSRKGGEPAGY
T1 sequence (P19440 27-380 limits assumed): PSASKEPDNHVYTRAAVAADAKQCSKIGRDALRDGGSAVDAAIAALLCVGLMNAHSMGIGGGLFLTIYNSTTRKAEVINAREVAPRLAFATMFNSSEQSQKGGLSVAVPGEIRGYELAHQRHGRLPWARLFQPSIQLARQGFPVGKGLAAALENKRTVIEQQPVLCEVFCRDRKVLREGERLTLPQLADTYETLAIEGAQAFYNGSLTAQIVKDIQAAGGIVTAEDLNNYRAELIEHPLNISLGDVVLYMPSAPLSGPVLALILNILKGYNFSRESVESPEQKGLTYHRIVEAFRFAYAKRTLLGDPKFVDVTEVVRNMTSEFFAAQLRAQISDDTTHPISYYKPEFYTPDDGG
Experimental: L-Glutamate Release Assay (Hydrolysis of GSH): This assay measures the production of glutamate from the hydrolysis of GSH by GGT enzyme and has been described in detail previously. The concentration of the substrate, GSH, was varied from 5 μM to 20 μM. The concentration of the inhibitors, OU749 and its analogs, were varied from 15.6 μM to 250 μM. The reaction was initiated with the addition of 10 mU hGGT. […] All compounds were also evaluated as inhibitors of glutamate dehydrogenase, the enzyme in the second half of the L-glutamate release assay. None of the compounds in this study inhibited glutamate dehydrogenase.

Human GGT1 (hGGT) [1] = target: T2, Human GGT1 (hGGT) (Homo sapiens, UniProt P19440); assay: L-GpNA Transpeptidation Assay with GlyGly as acceptor; type: biochemical; design: lacking the transmembrane domain; made in house; host or cells: Pichia pastoris; conditions: for fold change in L-GpNA Kii (transpeptidation) relative to Compound 16: weaker than Compound 16
T2 sequence (P19440 381-569 limits assumed): as the sequence (P19440 381-569 limits assumed) above
T2 sequence (P19440 27-380 limits assumed): as the sequence (P19440 27-380 limits assumed) above
Experimental: Transpeptidation Reaction: The same assay buffer was used for both the hydrolysis reaction and the transpeptidation reaction. The transpeptidation reaction included 40 mM glycylglycine (glygly, Sigma, St. Louis, Mo.) as the acceptor. […] The concentration of L-GpNA was 3 mM for experiments in which the concentration of glygly was varied. To initiate the transpeptidation reaction, 4 mU GGT were added.
1. […] 3 and 4. […] 5 (25).
L-GpNA Transpeptidation Assay: The assay has been described previously. […] The concentration of L-GpNA was 3 mM for experiments in which the concentration of GlyGly was varied. To initiate the transpeptidation reaction, 4 mU GGT were added.

Human GGT1 (hGGT) [2] = target: T2, Human GGT1 (hGGT); assay: D-GpNA Hydrolysis Assay (release of pNA, 405 nm, pH 7.4); conditions: for Vo (maximum velocity at zero activator) / V∞ (maximum rate at infinite activator): Hydrolysis D-GpNA, Table 3; for maximal fold induction: human
Experimental: (§1) Enzyme Isolation: Human GGT1 (P19440), lacking the transmembrane domain, was expressed in Pichia pastoris and isolated as previously described (14). […] One unit of GGT activity was defined as the amount of enzyme that released 1 μmol of paranitroaniline/min at 37° C. at pH 7.4 in the transpeptidation reaction.
The reaction was initiated with the addition of 19 mU GGT. The reaction was incubated at 37° C. and monitored continuously at 405 nm by a Bio-Rad model 680 microplate reader with Microplate Manager 5.2 software (Bio-Rad, Hercules, Calif.).
Data Analysis: Samples in each experiment were run in triplicate. Each inhibitor was evaluated in two or more independent experiments. Double reciprocal plots were generated to assess data quality and determine the correct rate equation for data fitting. Data were fitted using the proper rate equation and the Marquardt-Levenberg algorithm supplied with the Enzfitter program (BIOSOFT, Cambridge, UK). Kinetic parameters with standard errors were estimated using a simple weighting method.
Data adhering to Michaelis-Menten Kinetics were fitted to eq. 1. Data for initial rate patterns with D-, L-GpNA varied at different fixed levels of glygly were fitted to eq. […] Data for competitive and uncompetitive inhibition were fitted to eqs. 3 and 4. Data for the dependence of Vmax and Vmax/KD-GpNA on the concentration of activator were fitted using eq. 5 (25).
In eqs 1-6, Vmax are the initial and maximum rates, respectively, Ka and Kb are Michaelis constants for substrates A and B, respectively, and Kis and Kii are slope and intercept inhibition constants. In eq. 5, a is the value of Vmax or Vmax/KD-GpNA at zero activator/inhibitor, KID is the activation or inhibition constant, and KIN is a constant that causes the parameter to go to a constant value at infinite concentrations of X, the activator/inhibitor. The product a(KID/KIN) is the value of Vmax or Vmax/KD-GpNA at infinite activator/inhibitor (25). Data for noncompetitive inhibition were fitted to eq. 6. Data for the dependence of Vmax and Vmax/KD-GpNA on the concentration of activator were fitted using […].
as §1, with “hGGT” for “Human GGT1”, “described.” for “described (14).”, “reaction with L-GpNA.” for “reaction.”
D-GpNA Hydrolysis Assay: The assay was carried out as previously described. […] The reaction was initiated with the addition of 19 mU GGT as determined by the L-GpNA transpeptidation assay. The reaction was incubated at 37° C. and monitored continuously at 405 nm.

[3] = GlyGly varied, 3 mM L-GpNA, Table 2, read-out: Transpeptidation GlyGly Kis
[4] = L-GpNA varied, 40 mM GlyGly, Table 2, read-out: Transpeptidation L-GpNA Kii
[5] = Table 3, read-out: Transpeptidation GlyGly Kis
[6] = pH 7.4, read-out: Fold Activation
[7] = read-out: activation of the Vmax for hydrolysis (V∞/Vo)
[8] = Table 3, read-out: Transpeptidation L-GpNA Kii
[9] = Table 5, read-out: GlyGly with L-GpNA Kis
[10] = Table 5, read-out: L-GpNA with GlyGly Kii

| Ki (Human GGT1 (hGGT) [1]; [3]) | Ki (Human GGT1 (hGGT) [2]) [µM] | Ki (Human GGT1 (hGGT) [1]; [4]) | Ki (Human GGT1 (hGGT) [1]; [5]) | Vo (maximum velocity at zero activator) (Human GGT1 (hGGT) [2]) [mM/min/nM] | V∞ (maximum rate at infinite activator) (Human GGT1 (hGGT) [2]) [mM/min/nM] | maximal fold induction (Human GGT1 (hGGT) [2]; [6]) | SMILES | other results |
| --- | --- | --- | --- | --- | --- | --- | --- | --- |
| 133 ± 10.3 µM | 3800 ± 720 |  |  |  |  |  | COc1ccc(Cc2nnc(NS(=O)(=O)c3ccc(OC)cc3)s2)cc1 [Compound 9] | Ki (hGGT; GSH hydrolysis, Table 4): > 250 µM; Ki (Human GGT1 (hGGT) [1]; Table 4, read-out: L-GpNA with GlyGly Kii): 149 ± 23 µM |
| 46.3 ± 3.5 µM |  | 117 ± 7.4 µM |  |  |  |  | COc1ccc(Cc2nnc(NS(=O)(=O)c3ccc(C(F)(F)F)cc3)s2)cc1 [Compound 12] |  |
|  |  |  | 31.8 ± 0.7 µM | 1.53 ± 0.09 | 5.39 ± 0.28 | 3.52 ± 0.6 | O=[N+]([O-])c1ccc(S(=O)(=O)Nc2nnc(Cc3ccc(F)cc3)s2)cc1 [Compound 19] | maximal fold induction (Human GGT1 (hGGT) [2]; [7]): 3 to 6 |
|  |  |  | 59.6 ± 3.7 µM | 1.59 ± 0.06 | 9.09 ± 0.55 | 5.72 ± 0.32 | O=[N+]([O-])c1ccc(S(=O)(=O)Nc2nnc(Cc3ccccc3)s2)cc1 [Compound 13] | Ki (Human GGT1 (hGGT) [1]; [8]): 111 ± 5.5 µM; fold change in L-GpNA Kii (transpeptidation) relative to Compound 16 (Human GGT1 (hGGT) [1]): ~2 fold; maximal fold induction (Human GGT1 (hGGT) [2]; [7]): 3 to 6 |
| 10.8 ± 0.8 µM | 3160 ± 90 | 18.2 ± 0.7 µM |  |  |  |  | COc1ccc(Cc2nnc(NS(=O)(=O)c3ccc(Cl)c(Cl)c3)s2)cc1 [Compound 8] | Ki (hGGT; GSH hydrolysis, Table 6): > 250 µM |
| 96 µM and 95.7 µM |  | 93 µM and 92.8 µM |  | 1.59 ± 0.14 | 8.63 ± 1.21 | 5.43 ± 2.04 | COc1ccc(Cc2nnc(NS(=O)(=O)c3ccc([N+](=O)[O-])cc3)s2)cc1 [Compound 11] | difference in affinity for D-γ-glutamyl and L-γ-glutamyl enzyme intermediates (Human GGT1 (hGGT) [1]; human): 2.5 fold; fold change in GlyGly Kis (transpeptidation) relative to Compound 16 (Human GGT1 (hGGT) [1]; increase relative to Compound 16): more than 2 fold; fold change in L-GpNA Kii (transpeptidation) relative to Compound 16 (Human GGT1 (hGGT) [1]): less than 2 fold |
|  |  |  | 44.4 ± 3.4 µM | 1.71 ± 0.09 | 7.70 ± 0.46 | 4.5 ± 0.63 | O=[N+]([O-])c1ccc(S(=O)(=O)Nc2nnc(Cc3ccc(Cl)cc3)s2)cc1 [Compound 16] | Ki (Human GGT1 (hGGT) [1]; [8]): 61.9 µM; Ki (Human GGT1 (hGGT) [1]; Table 7, read-out: L-GpNA with GlyGly Kii): 62 ± 2 µM; maximal fold induction (Human GGT1 (hGGT) [2]; [7]): 3 to 6 |
|  |  |  |  |  |  |  | NS(=O)(=O)c1ccccc1.[Na] [SBS, Sodium benzenesulfonamide, reference compound] | Ki (Human GGT1 (hGGT) [1]; SBS, read-out: Kii, transpeptidation, vs L-GpNA): 28800 ± 1600 µM; Ki (Human GGT1 (hGGT) [1]; SBS, read-out: Kis, transpeptidation, vs GlyGly): 2280 ± 70 µM; fold less effective than OU749 in inhibiting hydrolysis of D-GpNA (Human GGT1 (hGGT) [2]; relative to OU749): more than 2.000 fold |
|  | 58 ± 6 |  |  |  |  |  | Nc1ccc(S(=O)(=O)Nc2nnc(Cc3ccccc3)s2)cc1 [Compound 25] | Ki (hGGT; GSH hydrolysis, Table 5): 242 ± 6 µM; Ki (Human GGT1 (hGGT) [1]; [9]): 42 ± 2 µM; Ki (Human GGT1 (hGGT) [1]; [10]): 74 ± 4 µM |
| 10 ± 0.4 µM | 73.3 ± 4 | 22.7 ± 0.5 µM |  |  |  |  | COc1ccc(Cc2nnc(NS(=O)(=O)c3ccc(C)cc3)s2)cc1 [Compound 2] | Ki (hGGT; GSH hydrolysis, Table 4): 506 ± 75 µM; fold less potent than OU749 in inhibiting GSH hydrolysis (hGGT; relative to OU749): 1.3 fold |
|  |  |  | 10 µM and 10.3 µM |  |  |  | O=[N+]([O-])c1ccc(S(=O)(=O)Nc2nnc(Cc3ccc(Cl)c(Cl)c3)s2)cc1 [Compound 20] | Ki (hGGT; Compound 20, inhibition of GSH hydrolysis, Table 7): 859 ± 83 µM; Ki (Human GGT1 (hGGT) [2]; read-out: D-GpNA Kii, Compound 20, Table 7): 78 ± 2 µM; Ki (Human GGT1 (hGGT) [2]; read-out: Kii with D-GpNA, competitive inhibition of the hydrolysis reaction, Compound 20, competitive vs D-GpNA): 78 µM and 78.2 µM |
|  | 29 ± 3 |  |  |  |  |  | Nc1ccc(Cc2nnc(NS(=O)(=O)c3ccc(N)cc3)s2)cc1 [Compound 23] | Ki (hGGT; GSH hydrolysis, Table 5): 102 ± 16 µM; Ki (Human GGT1 (hGGT) [1]; [9]): 15 ± 1 µM; Ki (Human GGT1 (hGGT) [1]; [10]): 181 ± 20 µM |
